Test results: BindingDB's records for doi:10.1515/dmdi.1990.8.1-2.85 (Duphar, 1990)

Columns and labels:
[1] = molecular target: Muscarinic acetylcholine receptor M2 (Rattus norvegicus, UniProt P10980)
[2] = molecular target: 5-hydroxytryptamine 1D receptor (Bos taurus, UniProt Q8MI13)
[3] = molecular target: Kappa-type opioid receptor (Rattus norvegicus, UniProt P34975)
[4] = molecular target: Calcium release-activated calcium channel protein 1 (Homo sapiens, UniProt Q96D31)
[5] = molecular target: Gamma-aminobutyric acid receptor subunit alpha-1 (Rattus norvegicus, UniProt P62813)
Gamma-aminobutyric acid receptor subunit alpha-1, sequence (P62813 whole entry): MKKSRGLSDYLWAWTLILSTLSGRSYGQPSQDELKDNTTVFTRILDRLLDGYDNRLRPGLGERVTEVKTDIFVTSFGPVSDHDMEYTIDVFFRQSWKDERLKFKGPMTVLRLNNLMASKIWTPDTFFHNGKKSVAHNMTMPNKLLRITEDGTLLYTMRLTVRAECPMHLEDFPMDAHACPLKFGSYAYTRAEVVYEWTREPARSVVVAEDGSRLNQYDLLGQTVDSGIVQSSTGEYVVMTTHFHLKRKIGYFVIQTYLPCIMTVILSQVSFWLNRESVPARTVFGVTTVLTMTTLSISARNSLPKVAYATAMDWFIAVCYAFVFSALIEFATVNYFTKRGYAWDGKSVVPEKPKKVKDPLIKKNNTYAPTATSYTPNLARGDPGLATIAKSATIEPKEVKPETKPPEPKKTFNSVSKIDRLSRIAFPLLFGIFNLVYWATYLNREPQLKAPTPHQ

D(1A) dopamine receptor = D(1A) dopamine receptor (Rattus norvegicus, UniProt P18901)
D(1A) dopamine receptor, sequence (P18901 whole entry): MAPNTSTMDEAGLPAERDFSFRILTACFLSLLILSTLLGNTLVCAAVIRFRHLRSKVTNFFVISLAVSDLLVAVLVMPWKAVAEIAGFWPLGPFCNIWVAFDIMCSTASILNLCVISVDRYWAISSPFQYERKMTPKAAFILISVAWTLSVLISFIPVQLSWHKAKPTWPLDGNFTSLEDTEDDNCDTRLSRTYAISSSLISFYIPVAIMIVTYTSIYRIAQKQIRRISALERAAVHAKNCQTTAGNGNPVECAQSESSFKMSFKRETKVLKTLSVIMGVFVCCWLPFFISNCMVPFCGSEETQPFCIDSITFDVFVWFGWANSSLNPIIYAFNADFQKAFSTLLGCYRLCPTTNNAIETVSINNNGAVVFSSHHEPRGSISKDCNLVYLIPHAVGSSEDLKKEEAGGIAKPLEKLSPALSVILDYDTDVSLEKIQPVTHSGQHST

[6] = molecular target: Voltage-dependent calcium channel gamma-1 subunit (Homo sapiens, UniProt Q06432)
Voltage-dependent calcium channel gamma-1 subunit, sequence (Q06432 whole entry): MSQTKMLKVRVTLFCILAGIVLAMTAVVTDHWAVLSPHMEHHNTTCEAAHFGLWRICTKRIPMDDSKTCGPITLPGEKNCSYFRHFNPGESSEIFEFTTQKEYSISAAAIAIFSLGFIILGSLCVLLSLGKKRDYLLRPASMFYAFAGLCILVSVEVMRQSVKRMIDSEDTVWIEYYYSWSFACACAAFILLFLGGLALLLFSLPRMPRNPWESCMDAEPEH

Protachykinin-1 = Protachykinin-1 (Rattus norvegicus, UniProt P06767)
D(2) dopamine receptor = D(2) dopamine receptor (Rattus norvegicus, UniProt P61169)
[7] = molecular target: Glutamate receptor ionotropic, NMDA 1 (Rattus norvegicus, UniProt P35439)
[8] = molecular target: Muscarinic acetylcholine receptor M1 (Rattus norvegicus, UniProt P08482)
Muscarinic acetylcholine receptor M1, sequence (P08482 whole entry): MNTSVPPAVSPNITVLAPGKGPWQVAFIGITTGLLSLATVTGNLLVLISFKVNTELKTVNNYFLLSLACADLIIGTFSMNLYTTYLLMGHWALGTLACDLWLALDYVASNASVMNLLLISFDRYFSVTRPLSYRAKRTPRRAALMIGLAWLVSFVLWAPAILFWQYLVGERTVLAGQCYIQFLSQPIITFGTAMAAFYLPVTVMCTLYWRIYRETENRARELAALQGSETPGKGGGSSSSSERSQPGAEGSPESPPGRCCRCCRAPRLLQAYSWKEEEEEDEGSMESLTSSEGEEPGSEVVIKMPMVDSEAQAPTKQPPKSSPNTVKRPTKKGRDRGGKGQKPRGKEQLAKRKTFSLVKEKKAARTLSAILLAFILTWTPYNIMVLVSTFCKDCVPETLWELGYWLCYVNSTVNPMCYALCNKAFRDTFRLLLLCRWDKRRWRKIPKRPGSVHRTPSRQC

[9] = molecular target: Delta-type opioid receptor (Rattus norvegicus, UniProt P33533)
[10] = molecular target: Alpha-1A adrenergic receptor (Rattus norvegicus, UniProt P43140)
[11] = molecular target: Sigma non-opioid intracellular receptor 1 (Rattus norvegicus, UniProt Q9R0C9)
Sigma non-opioid intracellular receptor 1, sequence (Q9R0C9 whole entry): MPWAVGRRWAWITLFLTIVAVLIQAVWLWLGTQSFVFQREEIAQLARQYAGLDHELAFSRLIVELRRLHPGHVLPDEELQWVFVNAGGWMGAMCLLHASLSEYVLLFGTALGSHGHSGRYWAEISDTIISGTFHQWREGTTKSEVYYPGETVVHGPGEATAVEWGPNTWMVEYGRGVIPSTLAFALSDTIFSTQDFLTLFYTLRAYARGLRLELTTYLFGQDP

Histamine H1 receptor = Histamine H1 receptor (Rattus norvegicus, UniProt P31390)
Histamine H1 receptor, sequence (P31390 whole entry): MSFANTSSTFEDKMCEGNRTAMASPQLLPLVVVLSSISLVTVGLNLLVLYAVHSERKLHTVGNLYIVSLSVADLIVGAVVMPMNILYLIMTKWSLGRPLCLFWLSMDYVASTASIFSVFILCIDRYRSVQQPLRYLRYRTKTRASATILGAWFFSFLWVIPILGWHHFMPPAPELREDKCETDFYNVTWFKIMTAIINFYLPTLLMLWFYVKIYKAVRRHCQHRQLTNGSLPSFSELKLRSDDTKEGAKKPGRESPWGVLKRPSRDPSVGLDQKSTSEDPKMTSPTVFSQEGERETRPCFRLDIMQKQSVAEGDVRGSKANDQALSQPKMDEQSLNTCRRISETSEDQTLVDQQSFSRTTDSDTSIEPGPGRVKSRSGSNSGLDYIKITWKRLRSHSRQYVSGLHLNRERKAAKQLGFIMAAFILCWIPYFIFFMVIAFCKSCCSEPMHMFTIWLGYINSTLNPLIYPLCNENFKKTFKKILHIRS

[12] = molecular target: Muscarinic acetylcholine receptor M3 (Rattus norvegicus, UniProt P08483)
[13] = molecular target: 5-hydroxytryptamine receptor 1B (Rattus norvegicus, UniProt P28564)
5-hydroxytryptamine receptor 1B, sequence (P28564 whole entry): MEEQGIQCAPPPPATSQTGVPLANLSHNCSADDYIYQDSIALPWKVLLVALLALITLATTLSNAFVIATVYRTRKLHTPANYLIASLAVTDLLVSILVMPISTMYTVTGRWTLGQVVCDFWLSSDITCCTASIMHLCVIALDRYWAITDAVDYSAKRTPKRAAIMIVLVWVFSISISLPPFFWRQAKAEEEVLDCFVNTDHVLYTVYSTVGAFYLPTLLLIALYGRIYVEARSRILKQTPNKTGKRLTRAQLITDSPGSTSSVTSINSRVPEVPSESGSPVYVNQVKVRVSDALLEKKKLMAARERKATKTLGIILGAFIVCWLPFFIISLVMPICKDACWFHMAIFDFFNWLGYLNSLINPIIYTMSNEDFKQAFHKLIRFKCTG

[14] = molecular target: Pro-thyrotropin-releasing hormone (Rattus norvegicus, UniProt P01150)
[15] = molecular target: Alpha-2C adrenergic receptor (Rattus norvegicus, UniProt P22086)
Alpha-2C adrenergic receptor, sequence (P22086 whole entry): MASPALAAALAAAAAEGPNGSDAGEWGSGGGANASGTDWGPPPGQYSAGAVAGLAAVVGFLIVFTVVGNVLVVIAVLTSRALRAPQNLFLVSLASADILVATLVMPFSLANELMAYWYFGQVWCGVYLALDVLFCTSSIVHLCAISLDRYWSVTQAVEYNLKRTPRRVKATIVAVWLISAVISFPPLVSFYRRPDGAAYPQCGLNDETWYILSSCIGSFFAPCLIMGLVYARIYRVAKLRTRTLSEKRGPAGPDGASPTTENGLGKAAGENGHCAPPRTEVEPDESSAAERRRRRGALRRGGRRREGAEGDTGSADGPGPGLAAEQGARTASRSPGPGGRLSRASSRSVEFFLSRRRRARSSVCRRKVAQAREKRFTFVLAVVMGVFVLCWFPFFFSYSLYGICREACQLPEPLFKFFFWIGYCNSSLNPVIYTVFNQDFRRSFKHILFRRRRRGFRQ

[16] = molecular target: Glycine amidinotransferase, mitochondrial (Rattus norvegicus, UniProt P50442)
Mu-type opioid receptor = Mu-type opioid receptor (Rattus norvegicus, UniProt P33535)
[17] = molecular target: Beta-1 adrenergic receptor (Rattus norvegicus, UniProt P18090)
[18] = molecular target: 5-hydroxytryptamine receptor 2A (Rattus norvegicus, UniProt P14842)
[19] = molecular target: Gastrin/cholecystokinin type B receptor (Rattus norvegicus, UniProt P30553)
[20] = molecular target: 5-hydroxytryptamine receptor 2C (Sus scrofa, UniProt G7ZKZ7)
5-hydroxytryptamine receptor 2C, sequence (G7ZKZ7 whole entry): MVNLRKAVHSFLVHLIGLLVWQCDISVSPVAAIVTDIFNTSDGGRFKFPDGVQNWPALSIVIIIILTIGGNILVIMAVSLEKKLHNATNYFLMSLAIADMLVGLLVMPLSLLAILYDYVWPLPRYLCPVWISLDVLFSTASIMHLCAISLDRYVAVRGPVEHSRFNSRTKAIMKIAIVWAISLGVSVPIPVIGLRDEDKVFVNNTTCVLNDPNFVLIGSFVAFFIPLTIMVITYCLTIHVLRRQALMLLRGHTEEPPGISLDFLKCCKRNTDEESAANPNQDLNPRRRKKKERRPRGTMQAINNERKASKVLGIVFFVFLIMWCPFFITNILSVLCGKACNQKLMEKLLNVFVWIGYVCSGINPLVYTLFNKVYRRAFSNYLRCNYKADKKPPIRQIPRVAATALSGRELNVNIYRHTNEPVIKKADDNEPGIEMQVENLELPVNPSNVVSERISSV

[21] = molecular target: 5-hydroxytryptamine receptor 3A (Mus musculus, UniProt P23979)
[22] = molecular target: Cysteinyl leukotriene receptor 1 (Cavia porcellus, UniProt Q2NNR5)
Cysteinyl leukotriene receptor 1, sequence (Q2NNR5 whole entry): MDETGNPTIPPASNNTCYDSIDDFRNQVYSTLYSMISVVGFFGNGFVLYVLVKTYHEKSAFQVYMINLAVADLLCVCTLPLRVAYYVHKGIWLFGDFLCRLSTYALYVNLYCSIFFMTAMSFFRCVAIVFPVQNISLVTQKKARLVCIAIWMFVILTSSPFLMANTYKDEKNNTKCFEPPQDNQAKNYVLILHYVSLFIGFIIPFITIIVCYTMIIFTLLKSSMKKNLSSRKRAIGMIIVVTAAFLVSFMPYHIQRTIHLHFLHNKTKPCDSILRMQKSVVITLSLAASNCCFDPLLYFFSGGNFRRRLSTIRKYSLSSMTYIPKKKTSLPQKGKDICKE

Muscarinic acetylcholine receptor M2, sequence (P10980 whole entry): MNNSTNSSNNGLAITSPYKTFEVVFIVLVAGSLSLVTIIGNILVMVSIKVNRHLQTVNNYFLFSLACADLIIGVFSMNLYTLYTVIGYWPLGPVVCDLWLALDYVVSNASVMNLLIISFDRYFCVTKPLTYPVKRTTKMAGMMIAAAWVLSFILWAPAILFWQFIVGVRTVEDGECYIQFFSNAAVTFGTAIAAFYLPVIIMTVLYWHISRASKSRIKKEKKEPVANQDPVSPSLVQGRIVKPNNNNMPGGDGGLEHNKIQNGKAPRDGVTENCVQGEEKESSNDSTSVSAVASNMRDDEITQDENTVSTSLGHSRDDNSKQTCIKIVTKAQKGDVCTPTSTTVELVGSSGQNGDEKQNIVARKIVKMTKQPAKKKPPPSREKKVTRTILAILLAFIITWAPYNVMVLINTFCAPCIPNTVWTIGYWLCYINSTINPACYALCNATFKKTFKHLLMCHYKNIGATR
5-hydroxytryptamine 1D receptor, sequence (Q8MI13 whole entry): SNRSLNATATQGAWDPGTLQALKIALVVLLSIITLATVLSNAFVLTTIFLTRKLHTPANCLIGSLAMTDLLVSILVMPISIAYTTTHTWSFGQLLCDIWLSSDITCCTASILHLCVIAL
Kappa-type opioid receptor, sequence (P34975 whole entry): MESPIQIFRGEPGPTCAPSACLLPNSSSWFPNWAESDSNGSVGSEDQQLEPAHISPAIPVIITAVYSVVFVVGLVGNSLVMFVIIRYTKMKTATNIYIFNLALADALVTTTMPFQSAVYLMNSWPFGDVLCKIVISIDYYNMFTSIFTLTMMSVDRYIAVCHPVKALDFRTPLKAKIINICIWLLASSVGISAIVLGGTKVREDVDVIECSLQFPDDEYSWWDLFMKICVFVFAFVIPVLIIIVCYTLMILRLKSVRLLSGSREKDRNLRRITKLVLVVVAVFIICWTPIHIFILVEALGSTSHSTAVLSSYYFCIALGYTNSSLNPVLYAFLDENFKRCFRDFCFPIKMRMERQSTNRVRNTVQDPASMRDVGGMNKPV

Compound: c1cc2c(c(N3CCNCC3)c1)OCCO2 [1-(2,3-Dihydro-benzo[1,4]dioxin-5-yl)-piperazine]
- Ki [1]: > 10 µM
- Ki [2]: 0.39 µM
- Ki [3]: > 10 µM
- Ki [4]: > 10 µM
- Ki [5]: > 10 µM
- Ki (D(1A) dopamine receptor): > 10 µM
- Ki [6]: > 10 µM
- Ki (Protachykinin-1): > 10 µM
- Ki (D(2) dopamine receptor): 1.1 µM
- Ki [7]: > 10 µM
- Ki [8]: > 10 µM
- Ki [9]: > 10 µM
- Ki [10]: 0.79 µM
- Ki [11]: 9.3 µM
- Ki (Histamine H1 receptor): 3.9 µM
- Ki [12]: > 10 µM
- Ki [13]: 0.052 µM
- Ki [14]: > 10 µM
- Ki [15]: 3.1 µM
- Ki [16]: > 10 µM
- Ki (Mu-type opioid receptor): > 10 µM
- Ki [17]: 0.42 µM
- Ki [18]: 1.7 µM
- Ki [19]: > 10 µM
- Ki [20]: 0.081 µM
- Ki [21]: 1.3 µM
- Ki [22]: > 10 µM
